In patent US10316017B2, “COT modulators and methods of use thereof” (Gilead Sciences, Inc., priority 2015, dated 2019):

Columns and labels:
[1] = tested on: TNFα production in LPS-stimulated human monocytes; test: Cot Monocyte TNFα Cell Based Assay; conditions: Homo sapiens, Monocyte, LPS-stimulated human monocytes, TNFα TR-FRET; read-out: EC50 TNF
Summary of the method: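 TR-FRET read-out of total secreted TNFα, normalized as % control (unstimulated = 0%, LPS-stimulated = 100%). Cells (5,000/well) were exposed to compound 1 h at 37 °C, then to 50 pg/ml LPS for a further 4 h.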

[2] = target: T1, human Cot catalytic domain (30-397 amino acids) (Homo sapiens, UniProt P41279); test: High Throughput Cot Biochemical Assay (KinEASE TR-FRET); conditions: Cot KinEASE TR-FRET, 400 μM ATP; read-out: IC50 HTRF
T1 construct: Purified recombinant human Cot catalytic domain (30-397 amino acids) was purchased from Cama Biosciences; purchased Cama Biosciences (so in the source)
T1 sequence (P41279 30-397): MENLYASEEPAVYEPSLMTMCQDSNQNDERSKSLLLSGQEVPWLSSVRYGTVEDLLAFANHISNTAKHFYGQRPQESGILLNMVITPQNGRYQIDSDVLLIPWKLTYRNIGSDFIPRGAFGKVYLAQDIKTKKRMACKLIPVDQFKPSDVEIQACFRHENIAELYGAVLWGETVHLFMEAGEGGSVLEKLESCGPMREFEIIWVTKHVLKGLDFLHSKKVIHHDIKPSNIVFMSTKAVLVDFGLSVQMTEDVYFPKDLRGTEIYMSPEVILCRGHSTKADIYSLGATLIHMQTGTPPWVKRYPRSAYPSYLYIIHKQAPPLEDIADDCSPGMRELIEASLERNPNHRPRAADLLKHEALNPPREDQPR
Summary of the method: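 TR-FRET readout: Eu-labeled phospho-specific antibody binds XL665-tagged STK3 peptide after phosphorylation by Cot (aa 30-397, 5 nM). Conditions: 400 μM ATP, 1 μM peptide, MOPS pH 7.0 buffer with MgOAc, DTT, BSA, NP-40, glycerol; 0.1% DMSO.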

| Compound | EC50 [1] [nM] | IC50 [2] [nM] |
| --- | --- | --- |
| CC(C)(C)CNc1c(C#N)cnc2c(Cl)cc(N[C@@H](c3ccc(F)cc3)c3cn(C45CC(C4)C5)nn3)cc12 [Example 1092, (S)-6-(((1-(bicyclo[1.1.1]pentan-1-yl)-1H-1,2,3-triazol-4-yl)(4-fluorophenyl)methyl)amino)-8-chloro-4-(neopentylamino)quinoline-3-carbonitrile] | 395 | 20 |
| CC(C)(C)CNc1c(C#N)cnc2c(Cl)cc(N[C@@H](c3ccccc3)c3cn(C45CC(C4)C5)nn3)cc12 [Example 1093, (S)-6-(((1-(bicyclo[1.1.1]pentan-1-yl)-1H-1,2,3-triazol-4-yl)(phenyl)methyl)amino)-8-chloro-4-(neopentylamino)quinoline-3-carbonitrile] | 424 | 17 |
| CC(C)(C)CNc1c(C#N)cnc2c(Cl)cc(N[C@@H](c3cccc(C4(C#N)CC4)c3)c3cn(C45CC(C4)C5)nn3)cc12 [Example 1094, (S)-6-(((1-(bicyclo[1.1.1]pentan-1-yl)-1H-1,2,3-triazol-4-yl)(3-(1-cyanocyclopropyl)phenyl)methyl)amino)-8-chloro-4-(neopentylamino)quinoline-3-carbonitrile] | 407 | 10 |
| Cc1c(-c2ccncc2)cccc1[C@H](Nc1cc(Cl)c2ncc(C#N)c(NCC(C)(C)C)c2c1)c1cn(C2(C(F)(F)F)CC2)nn1 [Example 1095, (S)-8-chloro-6-(((2-methyl-3 (pyridin-4-yl)phenyl)(1-(1-(trifluoromethyl)cyclopropyl)-1H-1,2,3-triazol-4-yl)methyl)amino)-4-(neopentylamino)quinoline-3-carbonitrile] | 226 | 12 |
| Cc1c(-c2cccnc2)cccc1[C@H](Nc1cc(Cl)c2ncc(C#N)c(NCC(C)(C)C)c2c1)c1cn(C2(C(F)(F)F)CC2)nn1 [Example 1096, (S)-8-chloro-6-(((2-methyl-3-(pyridin-3-yl)phenyl)(1-(1-(trifluoromethyl)cyclopropyl)-1H-1,2,3-triazol-4-yl)methyl)amino)-4-(neopentylamino)quinoline-3-carbonitrile] | 262 | 10 |
| Cc1c(-c2cnn(C)c2)cccc1[C@H](Nc1cc(Cl)c2ncc(C#N)c(NCC(C)(C)C)c2c1)c1cn(C2(C(F)(F)F)CC2)nn1 [Example 1097, (S)-8-chloro-6-(((2-methyl-3-(1-methyl-1H-pyrazol-4-yl)phenyl) (1-(1-(trifluoromethyl)cyclopropyl)-1H-1,2,3-triazol-4-yl)methyl)amino)-4-(neopentylamino)quinoline-3-carbonitrile] | 166 | 9 |
| Cc1cc(C#N)ccc1[C@H](Nc1cc(Cl)c2ncc(C#N)c(NCC(C)(C)C)c2c1)c1cn(C2(C(F)F)CC2)nn1 [Example 1098, (S)-8-chloro-6-(((4-cyano-2-methylphenyl)(1-(1-(difluoromethyl)cyclopropyl)-1H-1,2,3-triazol-4-yl)methyl)amino)-4-(neopentylamino)quinoline-3-carbonitrile] | 73 | 23 |
| Cc1c(C#N)cccc1[C@H](Nc1cc(Cl)c2ncc(C#N)c(NCC(C)(C)C)c2c1)c1cn(C2(CF)CC2)nn1 [Example 1100, (S)-8-chloro-6-(((3-cyano-2-methylphenyl)(1-(1-(fluoromethyl)cyclopropyl)-1H-1,2,3-triazol-4-yl)methyl)amino)-4-(neopentylamino)quinoline-3-carbonitrile] | 45 | 4 |
| Cc1c(C#N)cccc1[C@H](Nc1cc(Cl)c2ncc(C#N)c(NCC(C)(C)C)c2c1)c1cn(C2(C)CC2)nn1 [Example 1101, (S)-8-chloro-6-(((3-cyano-2-methylphenyl)(1-(1-methylcyclopropyl)-1H-1,2,3-triazol-4-yl)methyl)amino)-4-(neopentylamino)quinoline-3-carbonitrile] | 27 | 3 |
| Cc1c(C#N)cccc1[C@H](Nc1cc(Cl)c2ncc(C#N)c(NCC(C)(C)C)c2c1)c1cn(C(CF)CF)nn1 [Example 1102, (S)-8-chloro-6-(((3-cyano-2-methylphenyl)(1-(1,3-difluoropropan-2-yl)-1H-1,2,3-triazol-4-yl)methyl)amino)-4-(neopentylamino)quinoline-3-carbonitrile] | 63 | 8 |
| Cc1c(C#N)cccc1[C@H](Nc1cc(Cl)c2ncc(C#N)c(NCC(C)(C)C)c2c1)c1cn([C@@H](C)CF)nn1 [Example 1103, 8-chloro-6-(((S)-(3-cyano-2-methylphenyl)(1-((S)-1-fluoropropan-2-yl)-1H-1,2,3-triazol-4-yl)methyl)amino)-4-(neopentylamino)quinoline-3-carbonitrile] | 26 | 5 |
| Cc1c(C#N)cccc1[C@H](Nc1cc(Cl)c2ncc(C#N)c(NCC(C)(C)C(F)(F)F)c2c1)c1cn(C2(C)CC2)nn1 [Example 1104, (S)-8-chloro-6-(((3-cyano-2-methylphenyl)(1-(1-methylcyclopropyl)-1H-1,2,3-triazol-4-yl)methyl)amino)-4-((3,3,3-trifluoro-2,2-dimethylpropyl)amino)quinoline-3-carbonitrile] | 53 | 3 |
| Cc1c(C#N)cccc1[C@H](Nc1cc(Cl)c2ncc(C#N)c(NCC(C)(C)C(F)(F)F)c2c1)c1cn(C2(C3CC3)CC2)nn1 [Example 1105, (S)-6-(((1-([1,1'-bi(cyclopropan)]-1-yl)-1H-1,2,3-triazol-4-yl)(3-cyano-2-methylphenyl)methyl)amino)-8-chloro-4-((3,3,3-trifluoro-2,2-dimethylpropyl)amino)quinoline-3-carbonitrile] | 90 | 5 |
| Cc1c(C#N)cccc1[C@H](Nc1cc(Cl)c2ncc(C#N)c(NCC(C)(C)C(F)(F)F)c2c1)c1cn([C@@H](C)CF)nn1 [Example 1106, 8-chloro-6-(((S)-(3-cyano-2-methylphenyl)(1-((S)-1-fluoropropan-2-yl)-1H-1,2,3-triazol-4-yl)methyl)amino)-4-((3,3,3-trifluoro-2,2-dimethylpropyl)amino) quinoline-3-carbonitrile] | 76 | 5 |
| Cc1c(C#N)cccc1[C@H](Nc1cc(Cl)c2ncc(C#N)c(NCC(C)(C)C(F)(F)F)c2c1)c1cn(C23CC(C2)C3)nn1 [Example 1107, (S)-6-(((1-(bicyclo[1.1.1]pentan-1-yl)-1H-1,2,3-triazol-4-yl)(3-cyano-2-methylphenyl)methyl)amino)-8-chloro-4-((3,3,3-trifluoro-2,2-dimethylpropyl)amino) quinoline-3-carbonitrile] | 65 | 3 |
| Cc1c(C#N)cccc1[C@H](Nc1cc(Cl)c2ncc(C#N)c(NCC(C)(C)C)c2c1)c1cn(C23CC(C2)C3)nn1 [Example 1108, (S)-6-(((1-(bicyclo[1.1.1]pentan-1-yl)-1H-1,2,3-triazol-4-yl)(3-cyano-2-methylphenyl)methyl)amino)-8-chloro-4-(neopentylamino) quinoline-3-carbonitrile] | 31 | 4 |
| Cc1c(C#N)cccc1[C@H](Nc1cc(Cl)c2ncc(C#N)c(NCC(C)(C)C)c2c1)c1cn(C2(C3CC3)CC2)nn1 [Example 1109, (S)-6-(((1-([1,1'-bi(cyclopropan)]-1-yl)-1H-1,2,3-triazol-4-yl)(3-cyano-2-methylphenyl)-methyl)amino)-8-chloro-4-(neopentylamino)quinoline-3-carbonitrile] | 57 | 5 |
| Cc1nnc(C2(n3cc([C@@H](Nc4cc(Cl)c5ncc(C#N)c(NCC(C)(C)C)c5c4)c4ccccc4Cl)nn3)CC2)o1 [Example 1110, (S)-8-chloro-6-(((2-chlorophenyl)(1-(1-(5-methyl-1,3,4-oxadiazol-2-yl)cyclopropyl)-1H-1,2,3-triazol-4-yl)methyl)amino)-4-(neopentylamino)quinoline-3-carbonitrile] | 79 | 26 |
| [2H]C(Nc1cc(C#N)c2ncc(C#N)c(NCC(C)(C)C)c2c1)(c1cn(C2(C(F)F)CC2)nn1)c1ccccc1Cl (centres unmarked) [Example 1111, 6-(((2-chlorophenyl)(1-(1-(difluoromethyl)cyclopropyl)-1H-1,2,3-triazol-4-yl)methyl-d)amino)-4-(neopentylamino)-quinoline-3,8-dicarbonitrile] | 98 | 13 |
| CC(C)(C)CNc1c(C#N)cnc2c(Cl)cc(N[C@H](c3cn(C4(C(F)(F)F)CC4)nn3)c3cccc(C(=O)O)c3F)cc12 [Example 1112, (S)-3-(((8-chloro-3-cyano-4-(neopentylamino)quinolin-6-yl)amino)(1-(1-(trifluoromethyl)cyclopropyl)-1H-1,2,3-triazol-4-yl)methyl)-2-fluorobenzoic acid] | ≥ 1000 | 76 |
| CN(C)C(=O)c1cccc([C@H](Nc2cc(Cl)c3ncc(C#N)c(NCC(C)(C)C)c3c2)c2cn(C3(C(F)(F)F)CC3)nn2)c1F [Example 1113, (S)-3-(((8-chloro-3-cyano-4-(neopentylamino)quinolin-6-yl)amino)(1-(1-(trifluoromethyl)cyclopropyl)-1H-1,2,3-triazol-4-yl)methyl)-2-fluoro-N,N-dimethylbenzamide] | 444 | 22 |
| CNC(=O)c1cccc([C@H](Nc2cc(Cl)c3ncc(C#N)c(NCC(C)(C)C)c3c2)c2cn(C3(C(F)(F)F)CC3)nn2)c1F [Example 1114, (S)-3-(((8-chloro-3-cyano-4-(neopentylamino)quinolin-6-yl)amino)(1-(1-(trifluoromethyl)cyclopropyl)-1H-1,2,3-triazol-4-yl)methyl)-2-fluoro-N-methylbenzamide] | 408 | 5 |
